Several values for one entry are separate records, joined by “and”; a condition that tells them apart may be missing. Identical values can stand only once. Like-named read-outs stand apart in the source and are kept apart here.
Tests used:
KYSE450 cells = test: MTT assay, KYSE450; assay type: cell-based, human; conditions: for IC50: Homo sapiens, KYSE-450, MTT, 48 h, KYSE450, n = 5, read-out: IC50 48 h KYSE450; for absorbance 490 nm, single well / mean absorbance 490 nm (row G) / mean absorbance 490 nm minus background (row H): KYSE450
Description: (§1) The human cancer cells (H1650, H1975, KYSE70, KYSE410 and KYSE450) were purchased from the Type Culture Collection of the Chinese Academy of Sciences (Shanghai, China). The human immortalized normal esophageal epithelial cell line SHEE was donated by Dr. Enmin Li from the Laboratory of Tumor Pathology (Shantou University Medical College, Shantou, Guangdong, China). Drug-resistant cells (H1650TR, H1975OR, KYSE70TR, KYSE410TR and KYSE450TR) were induced by China-US (Henan) Hormel Cancer Institute. The cellswere cultured in RPMI-1640 complete growth medium containing 100 U/mL penicillin-streptomycin and 10% FBS. Based on the above medium formula, 100 nm/L paclitaxel was added in taxol-resistant cells, 100 nm/L gefitinib was added in gefitinib-resistant cells. The cells were incubated at 37 °C in an atmosphere containing 5% of CO2. The compounds were dissolved in DMSO to make a 50 mM stock solution and were diluted to the concentration of working solutions with complete growth medium before administration.
(§2) Cells were seeded in 96-well plates with 2,200–2,500 cells/well in100 μL. One day after seeding, test compounds with the concentration between 0 and 50 μM were added with 0.1% DMSO as control. Five multiple wells for each concentration. After 48 h, MTT was added and incubated in the plate for 1–4 h in the incubator. The absorbance at 490 nm was measured using a microplate reader (Thermo).

SHEE cells = test: MTT assay, normal esophageal epithelial cell line SHEE; assay type: cell-based; conditions: Homo sapiens, 48 h, n = 5
Description: as §1, §2

H1650 cells = test: MTT assay for cell proliferation and cytotoxicity, H1650; assay type: cell-based; conditions: Homo sapiens, NCI-H1650, 48 h, H1650, n = 5
Description: as §1, §2

H1975 cells = test: MTT assay for cell proliferation and cytotoxicity, H1975; assay type: cell-based, human; conditions: Homo sapiens, NCI-H1975, 48 h, MTT, 48 h, H1975, n = 5; read-out: IC50 48 h H1975
Description: as §1
as §2, with “After 48 h, MTT was added and incubated in the plate for 1–4 h in the incubator.” left out

KYSE410 cells = test: MTT assay, KYSE410; assay type: cell-based, human; conditions: for IC50: Homo sapiens, 48 h
Description: as §1, §2

KYSE70 cells = test: MTT assay, KYSE70; assay type: cell-based, human; conditions: for IC50: Homo sapiens, KYSE-70, MTT, 48 h, KYSE70, n = 5
Description: as §1, §2

EGFR = target: T1, EGFR (Homo sapiens, UniProt P00533); test: EGFR kinase assay (ELISA); assay type: biochemical; conditions: 25°C
T1 construct: purchased Active MOTIF
Protocol: Kinase inhibitory activities of the compounds were evaluated using the Protein Tyrosine Kinase Assay Kit (SignalChem (British Columbia, Canada)). The kinase enzyme of EGFR was purchased from Active MOTIF. The ELISA experiments were carried out according the instructions of the kit. Active kinases were incubated with indicated compounds in 1 × reaction buffer containing 20 μM substrate at 25°C for 1 h and 2 h, respectively. The absorbance was read with a multimode plate reader (PerkinElmer, United States) at 450 nm.

KYSE450TR cells = test: MTT assay, taxol-resistant KYSE450TR; assay type: cell-based, human; conditions: Homo sapiens, KYSE 450 TR, MTT, resistance-inducing drug (taxol)
Description: as §1
as §2, with “After 48 h, MTT was added and incubated in the plate for 1–4 h in the incubator.” left out

KYSE410TR cells = test: MTT assay, taxol-resistant KYSE410TR; assay type: cell-based, human; conditions: Homo sapiens, KYSE 410 TR, MTT, resistance-inducing drug (taxol)
Description: as §1
as §2, with “After 48 h, MTT was added and incubated in the plate for 1–4 h in the incubator.” left out

KYSE70TR cells = test: MTT assay, taxol-resistant KYSE70TR; assay type: cell-based, human; conditions: Homo sapiens, KYSE 70 TR, MTT, resistance-inducing drug (taxol)
Description: as §1
as §2, with “After 48 h, MTT was added and incubated in the plate for 1–4 h in the incubator.” left out

[1] = concentration 12.5 (unit not given)
[2] = concentration 25 (unit not given)
[3] = concentration 50 (unit not given)
[4] = concentration 100 (unit not given)
[5] = KYSE-410, MTT, KYSE410, n = 5, read-out: IC50 48 h KYSE410
[6] = incubation 1 h, read-out: IC50 EGFR 1 h
[7] = incubation 2 h, read-out: IC50 EGFR 2 h

T1 sequence (P00533 25-1210): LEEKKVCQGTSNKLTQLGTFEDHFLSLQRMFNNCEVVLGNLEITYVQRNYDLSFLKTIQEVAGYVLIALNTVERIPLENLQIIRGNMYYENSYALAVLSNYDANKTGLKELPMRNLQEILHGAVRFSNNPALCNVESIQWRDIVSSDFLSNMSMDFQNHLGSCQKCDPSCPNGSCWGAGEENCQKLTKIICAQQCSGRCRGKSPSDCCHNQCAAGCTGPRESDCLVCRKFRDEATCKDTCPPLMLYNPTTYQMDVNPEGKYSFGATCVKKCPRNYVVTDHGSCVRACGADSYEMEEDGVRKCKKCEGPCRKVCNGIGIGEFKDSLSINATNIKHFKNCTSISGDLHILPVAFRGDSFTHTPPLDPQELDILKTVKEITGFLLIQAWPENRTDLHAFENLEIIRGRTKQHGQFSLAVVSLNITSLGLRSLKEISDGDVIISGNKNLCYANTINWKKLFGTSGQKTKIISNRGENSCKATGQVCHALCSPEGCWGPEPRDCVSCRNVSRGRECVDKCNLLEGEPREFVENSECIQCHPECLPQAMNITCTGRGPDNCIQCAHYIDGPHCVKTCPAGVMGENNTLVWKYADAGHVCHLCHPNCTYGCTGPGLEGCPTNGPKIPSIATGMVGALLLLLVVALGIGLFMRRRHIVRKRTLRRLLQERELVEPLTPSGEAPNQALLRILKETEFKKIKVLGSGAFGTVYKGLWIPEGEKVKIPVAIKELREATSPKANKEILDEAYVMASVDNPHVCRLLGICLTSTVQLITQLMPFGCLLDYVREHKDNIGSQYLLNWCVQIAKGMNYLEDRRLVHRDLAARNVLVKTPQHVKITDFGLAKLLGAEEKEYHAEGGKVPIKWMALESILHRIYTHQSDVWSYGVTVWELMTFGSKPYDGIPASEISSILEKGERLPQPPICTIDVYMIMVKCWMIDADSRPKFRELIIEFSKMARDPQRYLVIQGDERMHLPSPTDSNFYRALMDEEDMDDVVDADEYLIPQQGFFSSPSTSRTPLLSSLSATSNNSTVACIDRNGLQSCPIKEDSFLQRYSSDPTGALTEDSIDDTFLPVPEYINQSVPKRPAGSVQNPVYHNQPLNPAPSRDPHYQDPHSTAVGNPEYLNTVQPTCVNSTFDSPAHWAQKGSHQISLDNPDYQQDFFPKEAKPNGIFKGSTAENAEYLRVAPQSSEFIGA

| melting point | Structure (SMILES) | IC50 (KYSE450 cells) | IC50 (SHEE cells) | IC50 (H1650 cells) | IC50 (H1975 cells) | IC50 (KYSE410 cells; [5]) | blank-corrected absorbance 490 nm relative to control (fraction) (KYSE410 cells; KYSE410, concentration 12.5) | inhibition (1 minus fraction of control) (KYSE410 cells; KYSE410, concentration 12.5) | blank-corrected absorbance 490 nm relative to control (fraction) (KYSE410 cells; KYSE410, concentration 25) | inhibition (1 minus fraction of control) (KYSE410 cells; KYSE410, concentration 25) | blank-corrected absorbance 490 nm relative to control (fraction) (KYSE410 cells; KYSE410, concentration 50) | inhibition (1 minus fraction of control) (KYSE410 cells; KYSE410, concentration 50) | blank-corrected absorbance 490 nm relative to control (fraction) (KYSE410 cells; KYSE410, concentration 100) | inhibition (1 minus fraction of control) (KYSE410 cells; KYSE410, concentration 100) | IC50 (KYSE70 cells) | blank-corrected absorbance 490 nm relative to control (fraction) (KYSE70 cells; KYSE70, concentration 12.5) | inhibition (1 minus fraction of control) (KYSE70 cells; KYSE70, concentration 12.5) | blank-corrected absorbance 490 nm relative to control (fraction) (KYSE70 cells; KYSE70, concentration 25) | inhibition (1 minus fraction of control) (KYSE70 cells; KYSE70, concentration 25) | blank-corrected absorbance 490 nm relative to control (fraction) (KYSE70 cells; KYSE70, concentration 50) | other results |
| --- | --- | --- | --- | --- | --- | --- | --- | --- | --- | --- | --- | --- | --- | --- | --- | --- | --- | --- | --- | --- | --- |
| 125 to 127 °C | Clc1ccccc1-n1cc(-c2cccc(Nc3ncnc4cc5c(cc34)OCCOCCOCCO5)c2)nn1 [compound 3e] | 21.8 ± 1.47 µM | 10.3 ± 0.84 µM | 5.61 ± 0.3 µM | 13.1 ± 1.02 µM | 11.7 ± 1.01 µM | 0.4649 | 0.5351 | 0.2124 | 0.7876 | 0.02952 | 0.9705 | 0.05985 | 0.9402 | 7.75 ± 0.68 µM | 0.1936 | 0.8064 | 0.0586 | 0.9414 | 0.07267 | absorbance 490 nm, single well (KYSE450 cells; [1]): 0.5603 and 0.5422 and 0.5648 and 0.5469; mean absorbance 490 nm (row G) (KYSE450 cells; [1]): 0.5535; mean absorbance 490 nm minus background (row H) (KYSE450 cells; [1]): 0.4989; absorbance 490 nm, single well (KYSE450 cells; [2]): 0.3988 and 0.3524 and 0.3487 and 0.3334; mean absorbance 490 nm (row G) (KYSE450 cells; [2]): 0.3583; mean absorbance 490 nm minus background (row H) (KYSE450 cells; [2]): 0.3036; absorbance 490 nm, single well (KYSE450 cells; [3]): 0.0685 and 0.0639 and 0.0619 and 0.065 and 0.0672; mean absorbance 490 nm (row G) (KYSE450 cells; [3]): 0.0653; mean absorbance 490 nm minus background (row H) (KYSE450 cells; [3]): 0.01062; absorbance 490 nm, single well (KYSE450 cells; [4]): 0.0642 and 0.0659 and 0.0644 and 0.0663; mean absorbance 490 nm (row G) (KYSE450 cells; [4]): 0.0652; mean absorbance 490 nm minus background (row H) (KYSE450 cells; [4]): 0.01052; inhibition (1 minus fraction of control) (KYSE70 cells; KYSE70, concentration 50): 0.9273; blank-corrected absorbance 490 nm relative to control (fraction) (KYSE70 cells; KYSE70, concentration 100): 0.08298; inhibition (1 minus fraction of control) (KYSE70 cells; KYSE70, concentration 100): 0.917; IC50 (EGFR; [6]): 1.29 µM; IC50 (EGFR; [7]): 4.41 µM |
| – | CC(=O)O[C@H]1C(=O)[C@@]2(C)[C@H]([C@H](OC(=O)c3ccccc3)[C@]3(O)C[C@H](OC(=O)[C@H](O)[C@@H](NC(=O)c4ccccc4)c4ccccc4)C(C)=C1C3(C)C)[C@]1(OC(C)=O)CO[C@@H]1C[C@@H]2O [taxol, reference compound] | – | – | – | – | – | – | – | – | – | – | – | – | – | – | – | – | – | – | – | IC50 (KYSE450TR cells; 24 h, read-out: 24 h IC50): 0.266 ± 0.0661 µM; IC50 (KYSE450TR cells; 48 h, read-out: 48 h IC50): 0.12 ± 0.0301 µM; IC50 (KYSE410 cells; KYSE 410, MTT, resistance-inducing drug (taxol), read-out: 48 h IC50): 0.0524 ± 0.00345 µM; IC50 (KYSE410TR cells; 24 h, read-out: 24 h IC50): 6.4 ± 0.43 µM; IC50 (KYSE410TR cells; 48 h, read-out: 48 h IC50): 1.71 ± 0.05 µM; IC50 (KYSE70TR cells; 24 h, read-out: 24 h IC50): 4.92 ± 0.274 µM; IC50 (KYSE70TR cells; 48 h, read-out: 48 h IC50): 1.12 ± 0.0352 µM |
| 121 to 124 °C | COc1ccccc1-n1cc(-c2cccc(Nc3ncnc4cc5c(cc34)OCCOCCOCCO5)c2)nn1 [compound 3d] | 13.5 ± 1.21 µM | 7.2 ± 0.71 µM | 10.8 ± 0.89 µM | 19.4 ± 1.21 µM | 8.67 ± 0.71 µM | 0.2787 | 0.7213 | -0.00175 | 1.002 | 0.004317 | 0.9957 | 0.02345 | 0.9766 | 7.35 ± 0.7 µM | 0.1496 | 0.8504 | 0.05438 | 0.9456 | 0.05391 | absorbance 490 nm, single well (KYSE450 cells; [1]): 0.4487 and 0.4214 and 0.4264 and 0.4518; mean absorbance 490 nm (row G) (KYSE450 cells; [1]): 0.4371; mean absorbance 490 nm minus background (row H) (KYSE450 cells; [1]): 0.3824; absorbance 490 nm, single well (KYSE450 cells; [2]): 0.0614 and 0.062 and 0.0618; mean absorbance 490 nm (row G) (KYSE450 cells; [2]): 0.06165; mean absorbance 490 nm minus background (row H) (KYSE450 cells; [2]): 0.00697; absorbance 490 nm, single well (KYSE450 cells; [3]): 0.0565 and 0.0602 and 0.0592 and 0.0604; mean absorbance 490 nm (row G) (KYSE450 cells; [3]): 0.05908; mean absorbance 490 nm minus background (row H) (KYSE450 cells; [3]): 0.004395; absorbance 490 nm, single well (KYSE450 cells; [4]): 0.0606 and 0.0657 and 0.0613 and 0.0623; mean absorbance 490 nm (row G) (KYSE450 cells; [4]): 0.06248; mean absorbance 490 nm minus background (row H) (KYSE450 cells; [4]): 0.007795; inhibition (1 minus fraction of control) (KYSE70 cells; KYSE70, concentration 50): 0.9461; blank-corrected absorbance 490 nm relative to control (fraction) (KYSE70 cells; KYSE70, concentration 100): 0.08017; inhibition (1 minus fraction of control) (KYSE70 cells; KYSE70, concentration 100): 0.9198; IC50 (EGFR; [6]): 5.14 µM; IC50 (EGFR; [7]): 26 µM |
| 132 to 135 °C | Clc1ccc(-n2cc(-c3cccc(Nc4ncnc5cc6c(cc45)OCCOCCOCCO6)c3)nn2)cc1 [compound 3b] | 11.6 ± 1.02 µM | 6.03 ± 0.48 µM | 7.81 ± 0.46 µM | > 50 µM | 10.7 ± 0.86 µM | 0.4136 | 0.5864 | 0.4139 | 0.5861 | 0.3164 | 0.6836 | 0.1744 | 0.8256 | 8.85 ± 0.67 µM | 0.2939 | 0.7061 | 0.2786 | 0.7214 | 0.1882 | inhibition (1 minus fraction of control) (KYSE70 cells; KYSE70, concentration 50): 0.8118; blank-corrected absorbance 490 nm relative to control (fraction) (KYSE70 cells; KYSE70, concentration 100): 0.1691; inhibition (1 minus fraction of control) (KYSE70 cells; KYSE70, concentration 100): 0.8309; IC50 (EGFR; [6]): 3.26 µM; IC50 (EGFR; [7]): 71.7 µM |
